PubChem BioAssay AID540365 (The Scripps Research Institute Molecular Screening Center, 2011)
Calls of active or inactive are those of the source. The rule behind the calls is not given here.

Molecular target: Neuropeptides B/W receptor type 1 (Homo sapiens) (UniProt P48145)
Experiment: GPR7 antagonists, late-stage follow-up, cell-based, fluorescence, dose response, set 3 (AID 540365)
Settings: GPR7-expressing cells, fluorescence antagonist read-out

| IC50 (run 1) | IC50 (run 2) | IC50 (run 3) | Compound |
| --- | --- | --- | --- |
| 451 nM | 597 nM | 1310 nM | CCOC(=O)C(c1cccc2ccccc12)n1ncc(Cl)c(Oc2ccc(OC)cc2)c1=O (centres undefined) |
| 1480 nM | 1950 nM | 2020 nM | COc1ccc(Oc2c(Cl)cnn(Cc3ccc4ccccc4c3)c2=O)cc1 |
| 1320 nM | 864 nM | 953 nM | CCOC(=O)C(c1ccccc1)n1ncc(Cl)c(Oc2ccc(OC)cc2)c1=O (centres undefined) |
| 2220 nM | 2130 nM | 2090 nM | CCOc1ccc(Oc2c(S(C)=O)cnn(Cc3cccc4ccccc34)c2=O)cc1 (centres undefined) |
| 1310 nM | 1690 nM | 2490 nM | COc1ccc(Oc2c(C#N)cnn(Cc3cccc4ccccc34)c2=O)cc1 |
| 1140 nM | 1080 nM | 1120 nM | CCCOc1ccc(Oc2c(Cl)cnn(Cc3cccc4ccccc34)c2=O)cc1 |
| 480 nM | 168 nM | 207 nM | CCOc1ccc(Oc2c(Cl)cnn(C3c4ccccc4-c4ccccc43)c2=O)cc1 |
| 177 nM | 237 nM |  | CCOc1ccc(Oc2c(Cl)c(Br)nn(Cc3cccc4ccccc34)c2=O)cc1 |
| 3400 nM | 4100 nM | 4930 nM | COc1ccc(Oc2c(Cl)cnn(Cc3cccc4cnccc34)c2=O)cc1 |
| 843 nM | 726 nM | 719 nM | COc1ccc(Oc2c(Cl)cnn(Cc3c(F)cccc3F)c2=O)cc1 |
| 418 nM | 808 nM | 818 nM | C=Cc1nn(Cc2ccccc2C)c(=O)c(Oc2ccc(OC)cc2)c1C=C |
| 1090 nM | 1270 nM | 1190 nM | COc1ccc(Oc2c(Cl)c(C#N)nn(Cc3ccccc3C)c2=O)cc1 |
| > 20000 nM (inactive) | > 20000 nM (inactive) | > 20000 nM (inactive) | CCCOc1ccc(Oc2c(Cl)cnn(C3c4ccccc4-c4ccccc43)c2=O)cc1 |
| 132 nM | 242 nM | 240 nM | COc1ccc(Oc2c(Br)cnn(Cc3cccc4ccccc34)c2=O)cc1 |
| inactive | 9470 nM | > 20000 nM (inactive) | COc1ccc(Nc2c(Cl)cnn(Cc3cccc4ccccc34)c2=O)cc1 |
| 580 nM | 497 nM | 481 nM | COc1ccc(Oc2c(Cl)cnn(C(c3ccccc3)c3ccccc3)c2=O)cc1 |
| 660 nM | 1030 nM |  | COc1ccc(Sc2c(Cl)cnn(Cc3cccc4ccccc34)c2=O)cc1 |
